Reference: patent US6566399B2, “Inhibitor of replicative senescence of human keratinocytes containing retinoic acid as active ingredients” (priority 2000, dated 2003)

How the values were obtained:
[1] = tested on: normal human oral keratinocytes (NHOK); assay: NHOK proliferation rate with all-trans retinoic acid (viable cell count by trypan blue exclusion); format: cell-based
Experimental: NHOK were prepared from human gingival tissue specimens (Min B. -M. et al., Int. J. Oncol., […], 7, 249-256). The tissue samples obtained from four healthy volunteers (ages ranged from 18 to 30 years) were thoroughly washed three times with calcium and magnesium-free Hanks' balanced salt solution (CMF-HBSS; GibcoBRL). In order to separate the epithelial tissue from the underlying mucosa, the tissue scruples were incubated in CMF-HBSS containing collagenase type II (1.0 mg/ml; Sigma Chemical Co.) and dispase grade II (2.4 mg/ml; Boeringer-Mannheim) for 90 min at 37° C. in 95% air and 5% carbon dioxide Primary NHOK were prepared from separated oral epithelial tissue (Min B. -M. et al., Int. J. Oncol. 1995, 7, 249-256), and cultured in keratinocyte basal medium containing 0.15 mM calcium and supplementary growth factor bullet kit (KGM; Clonetics Corp.) as described above. […]
To determine the effect of all-trans retinoic acid on cell proliferation, rapidly proliferating NHOK (PDL 18) were plated at 2×10^4 cells per well in a 24-well culture plate. […] The average number and standard deviation were calculated as the means of four independent experiments (FIG. 1a).

[2] = tested on: normal human epidermal keratinocytes (NHEK); assay: NHEK proliferation rate with all-trans retinoic acid (viable cell count by trypan blue exclusion); format: cell-based
Experimental: NHEK was prepared in the same manner as in the above example 1, except that tissue samples were taken from human foreskin tissue specimens of two healthy volunteers (ages ranged from 1 to 3 years).
To determine the effect of all-trans retinoic acid on cell proliferation, rapidly proliferating NHEK (PDL 11) were plated at 2×10^4 cell per well in a 24-well plate and cultured until their cell density reached 40% (24 hours after the plating). The cultured cells were exposed to all-trans retinoic acid containing various concentrations, 1 nM, 10 nM, 100 nM, 500 nM, 1 μM, and 5 μM and harvested after 2 or 4 days of incubation to count the number of viable cells by trypan blue exclusion. The average number and standard deviation was calculated as above same procedure (FIG. 1b).

[3] = tested on: senescent NHOK (PDL 22); assay: Senescence inhibition of senescent NHOK by SA-β-gal staining; format: cell-based, human; details: 1 nM, 21 days
Source text: The senescent NHOK were positively stained by β-galactosidase (Dimri G. D. et al., Proc. Nat. Acad. Sci., 1995, 92, 9363-9367). Using such properties, the inhibition against senescence of all-trans retinoic acid-treated NHOK was examined. […]
To ensure a representative count, each cell culture was divided into four equal parts and minimum two areas per each part were photographed with Olympus IMT-2 phase-contrast microscope, thus counting the cells. As the result, minimum 500 or more cells per each part were counted.
After the senescent NHOK (PDL 22) were exposed to 1, 10, or 100 nM retinoic acid for 21 days the percentage (%) of senescent cells was obtained from SA-β-gal positive cell (%) versus total cells. The average percentage (%) and standard deviation were calculated from three independent experiments.

[4] = tested on: NHOK; assay: Mitotic capacity of NHOK through continuous subculture (PDL, SA-β-gal); format: cell-based, human; details: 1 nM
Experimental: (§1) At the end of each stage, the population doubling level of NHOK was calculated by the following equation 1: […]
(§2) Wherein, N: PDL, Cf: total cell numbers obtained from the end of a passage, Ci: total cell numbers of attached cells at seeding.
(§3) NOOK (PDL 15) showing rapid proliferation was cultured with 2×10^5 cell per 60-mm petri dish. In addition, NHEK (PDL 11) was cultured in the same manner as in the NHOK. The cells were divided into two groups, which were cultured in KGM containing vehicle (0.001% DMSO) or 1 nM all-trans retinoic acid until the cells reached 70% confluency, and then subcultured until they reached the postmitotic stage of cell proliferation. All-trans retinoic acid was used by dissolving it in DMSO and then diluting with KGM so as to have a final DMSO concentration of 0.001%. The PDL accumulated at the last stage of each subculture and the senescent cell numbers in the cultured NHOK and NHEK, that is to say, the percentage (%) of positive cells by SA-β-gal staining were determined. The cell pellet obtained after washing with 1X PBS was frozen at −70° C. for TRAP and Western blot analysis (see, FIGS. 3a, 3b, 3c, 4a, 4b, and 4c).

[5] = tested on: NHEK; assay: Mitotic capacity of NHEK through continuous subculture (PDL, SA-β-gal); format: cell-based, human; details: 1 nM
Experimental: as §1, §2, §3

[6] = tested on: telomerase activity of NHOK; assay: Telomerase activity of NHOK by TRAP assay; format: cell-based, human; details: 1 nM
Experimental: (§4) To investigate telomerase activity of NHOK and NHEK exposed to all-trans retinoic acid, the telomerase activity was determined using a TPAP-eze telomerase detection kit (Oncor Inc.), which, is based on the TRAP assay.
(§5) More specifically, the frozen cell pellet in the above example 4 was dissolved in 200 μl of 1X CHAPS buffer (composition: 10 mM Tris-HCl pH 7.5, 1 mM MgCl2; 1 mM EDTA 0.5% 3[(3-cholamidopropyl)-dimethylammonium]-1-propanesulfonate, 10% glycerol, 5 mM β-mercaptoethanol and 0.1 mM benzamidine), incubated on ice for 30 minutes; and then centrifuged at 12,000 rpm for 30 minutes at 4° C. The separated supernatant was aliquoted and frozen on dry ice for TRAP assay.
(§6) For TRAP analysis, 2 μl of cell lysate containing 1.0 μg of cellular proteins were added to 48 μl of solution including 1X TRAP reaction buffer [composition: 20 mM Tris-HCl (pH 8.3), 1.5 mM MgCl2, 63 mM KCl 0.005% Tween 20, and 1 mM EGTA], 50 μM of each of four types of deoxynucleotide triphosphates, 0.05 μg of TS primer end-labeled with 20 μCi of [γ^32-P] ATP (3000 Ci/mmol; Amersham Corp.), 1 μl of primer mix, and Taq DNA polymerase (Perkin-Elmer) 0.4 unity. […] The PCR products were run in 12.5% nondenaturing polyacrylamide gel in 1X Tris-borate EDTA for 90 minutes at 60 W. After drying the gel, the radioactive signal was detected by autoradiography.

[7] = tested on: telomerase activity of NHEK; assay: Telomerase activity of NHEK by TRAP assay; format: cell-based, human; details: 1 nM
Experimental: as §4, §5, §6

[8] = tested on: pRb protein in NHOK; assay: pRb protein level in NHOK by Western blot; format: cell-based, human; details: 1 nM
Experimental: (§7) To investigate the expression levels of pRb and p16^INK4A proteins in NHOK and NHEK that are exposed to all trans retinoic acid, Western blot analysis (Min B. -M. et al., Int. J. Oncol., 1995, 7, 249-256) was performed using anti-mouse Rb (IFB) monoclonal antibody and anti-human p16 (C-20) polyclonal antibody (Santa Cruz Biotechnology). After probing with each of the respective antibodies, the membrane was stained with 1X Ponceau S stain for 10 minutes to reveal the total protein loading per lane.

[9] = tested on: p16^INK4A protein in NHOK; assay: p16^INK4A protein level in NHOK by Western blot; format: cell-based, human; details: 1 nM, at any given PDL number
Experimental: as §7

[10] = tested on: p16^INK4A protein in NHEK; assay: p16^INK4A protein level in NHEK by Western blot; format: cell-based, human; details: 1 nM, PDL 13.6-17.1
Experimental: as §7

[11] = Acute oral toxicity test of rat; details: Sprague-Dawley, in vivo, 1 g/kg/15 ml
Experimental: To investigate the acute oral Toxicity test: Sprague-Dawley rats aged 6 weeks are used. Two rats per group were orally administered with all-trans retinoic acid and the 0.5% methyl cellulose solutions at a dose of 1 g/kg/15 ml one time. After administration, clinical symptoms, occurrence of death and the change of weight were observed. In addition, the rats were killed after administration, dissected, and celiac intestine and thoracic were examined with the unaided eye.

SMILES: CC1=C(/C=C/C(C)=C/C=C/C(C)=C/C(=O)O)C(C)(C)CCC1 [all-trans retinoic acid]
- cell proliferation of NHOK, best of the test concentrations ([1]; 1 nM, among test concentrations 1 nM to 10 μM): maximally enhanced
- cell proliferation of NHOK compared to the vehicle control ([1]; NHOK (PDL 18), 1 or 10 nM, 2 or 4 days of incubation): noticeably increased
- cell proliferation of NHEK, best of the test concentrations ([2]; 1 nM, among test concentrations 1 nM to 5 μM): maximum cell proliferation
- growth of NHEK ([2]; 1 μM or higher): restrained in their growth
- cell proliferation of NHEK compared to the vehicle control ([2]; NHEK (PDL 11), 1 nM, 2 or 4 days of incubation): notably increased
- replicative senescence (SA-β-gal positive cells) compared to the vehicle control [3]: significantly inhibited
- upper end of the log phase of cell proliferation (PDL) ([4]; serial subculture from PDL 15, vehicle: until PDL 20): 26 PDL
- PDL at which cells ceased to proliferate ([4]; serial subculture, vehicle: PDL 22): 28 PDL
- upper end of the log phase of cell proliferation (PDL) ([5]; serial subculture from PDL 10.8, vehicle: until PDL 19.8): 24.3 PDL
- PDL up to which cells proliferated (no further proliferation) ([5]; serial subculture, vehicle: PDL 20.5): 25.1 PDL
- telomerase activity ([6]; PDL 27 and 28 (replicative senescence)): almost undetectable
- telomerase activity ([6]; at high PDL numbers): maintained or slightly increased
- telomerase activity ([7]; PDL 24.3 and 25.1 (replicative senescence)): hardly or almost undetected
- telomerase activity ([7]; according to the increase of PDL): maintained
- pRb protein level compared to the vehicle control ([8]; according to the increase of PDL (high PDL)): higher levels
- amount of pRb protein ([8]; early culture at PDL 18): extremely low
- pRb protein level compared to the vehicle control of corresponding PDL ([8]; low PDL): much lower
- intracellular p16^INK4A protein level compared to the vehicle control [9]: significantly lower
- intracellular p16^INK4A protein level compared to the vehicle control [10]: much lower
- LD50 [11]: > 2000 mg/kg
